Assay results published in ChEMBL document CHEMBL1201862, “PubChem BioAssay data set” (2004).
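48-hour exposure; five concentrations; linearly interpolated endpoints. GI50 = concentration required for 50% inhibition of growth.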 Activity calls are given as the source filed them. Rule as the data show it: active = GI50 up to about 1.1 µM and inactive = higher.

Tests used:
Assay in all cases: growth of human tumour cells (NCI), 48 h
SW-620 = system: SW-620
HT-29 = system: HT-29
K562 = system: K562
TK-10 = system: TK-10
HCT-15 = system: HCT-15
RPMI-8226 = system: RPMI-8226
DMS-273 = system: DMS-273
ACHN = system: ACHN
SF-268 = system: SF-268
SK-MEL-5 = system: SK-MEL-5
DLD-1 = system: DLD-1
HCC 2998 = system: HCC 2998
HOP-62 = system: HOP-62
IGROV-1 = system: IGROV-1
SNB-19 = system: SNB-19
A549 = system: A549
SF-295 = system: SF-295

For `CC(C)(C)OC(=O)N1CC(C)(C)N2C(=O)C3(CCCO3)C12` (stereo not given), the GI50 (SW-620) was 14.9 µM (inactive), the GI50 (HT-29) was > 100 µM (inactive) and the GI50 (K562) was 58.9 µM (inactive). The GI50 (TK-10) was > 100 µM (inactive), the GI50 (HCT-15) was > 100 µM and the GI50 (RPMI-8226) was 19.5 µM (inactive). For the same molecule, the GI50 (DMS-273) was 37.8 µM (inactive), the GI50 (ACHN) was > 100 µM (inactive) and the GI50 (SF-268) was > 100 µM (inactive). The GI50 (SK-MEL-5) was > 100 µM (inactive), the GI50 (DLD-1) was > 100 µM (inactive) and the GI50 (HCC 2998) was > 100 µM (inactive). The GI50 (HOP-62) was > 100 µM (inactive), the GI50 (IGROV-1) was > 100 µM (inactive) and the GI50 (SNB-19) was > 100 µM (inactive). The GI50 (A549) was > 100 µM (inactive) and the GI50 (SF-295) was > 100 µM (inactive).
With `O=C1c2ccccc2C(=O)N1C/C=C/CO` the GI50 (SW-620) was > 100 µM (inactive), the GI50 (K562) was > 100 µM (inactive) and the GI50 (TK-10) was > 100 µM (inactive). For the same molecule, the GI50 (HCT-15) was > 100 µM, the GI50 (RPMI-8226) was > 100 µM (inactive) and the GI50 (DMS-273) was > 100 µM (inactive). The GI50 (ACHN) was > 100 µM (inactive), the GI50 (SF-268) was > 100 µM (inactive) and the GI50 (SK-MEL-5) was > 100 µM (inactive). For the same molecule, the GI50 (DLD-1) was > 100 µM (inactive), the GI50 (HCC 2998) was > 100 µM (inactive) and the GI50 (HOP-62) was > 100 µM (inactive). For the same molecule, the GI50 (IGROV-1) was > 100 µM (inactive), the GI50 (SNB-19) was > 100 µM (inactive) and the GI50 (A549) was > 100 µM (inactive).
With `Cc1ccccc1-c1cc(=O)c2cc(C)c(C)c(C(=O)O)c2o1` the GI50 (SW-620) was > 100 µM (inactive), the GI50 (HT-29) was > 100 µM (inactive) and the GI50 (K562) was > 100 µM (inactive). For the same molecule, the GI50 (TK-10) was > 100 µM (inactive), the GI50 (HCT-15) was > 100 µM and the GI50 (RPMI-8226) was > 100 µM (inactive). For the same molecule, the GI50 (DMS-273) was > 100 µM (inactive), the GI50 (ACHN) was > 100 µM (inactive) and the GI50 (SK-MEL-5) was > 100 µM (inactive). The GI50 (DLD-1) was > 100 µM (inactive), the GI50 (HCC 2998) was > 100 µM (inactive) and the GI50 (HOP-62) was > 100 µM (inactive). For the same molecule, the GI50 (IGROV-1) was > 100 µM (inactive), the GI50 (SNB-19) was > 100 µM (inactive) and the GI50 (A549) was > 100 µM (inactive). The GI50 (SF-295) was > 100 µM (inactive).
With `C1=CC=C2NCCC/N=C3/C=CC=CC=C3NCCC/N=C\2C=C1` the GI50 (SW-620) was > 100 µM (inactive), the GI50 (HT-29) was > 100 µM (inactive) and the GI50 (K562) was > 100 µM (inactive). The GI50 (TK-10) was > 100 µM (inactive), the GI50 (HCT-15) was > 100 µM and the GI50 (RPMI-8226) was > 100 µM (inactive). The GI50 (DMS-273) was > 100 µM (inactive), the GI50 (ACHN) was > 100 µM (inactive) and the GI50 (SF-268) was > 100 µM (inactive). The GI50 (SK-MEL-5) was > 100 µM (inactive), the GI50 (DLD-1) was > 100 µM (inactive) and the GI50 (HCC 2998) was > 100 µM (inactive). For the same molecule, the GI50 (HOP-62) was > 100 µM (inactive), the GI50 (IGROV-1) was > 100 µM (inactive) and the GI50 (SNB-19) was > 100 µM (inactive). The GI50 (A549) was > 100 µM (inactive) and the GI50 (SF-295) was > 100 µM (inactive).
For `CC(=O)Nc1ccc(C(=O)N2N=C(C)/C(=C/c3cccc([N+](=O)[O-])c3)C2=O)cc1`, the GI50 (SW-620) was > 100 µM (inactive), the GI50 (HT-29) was > 100 µM (inactive) and the GI50 (K562) was > 100 µM (inactive). The GI50 (TK-10) was > 100 µM (inactive), the GI50 (RPMI-8226) was > 100 µM (inactive) and the GI50 (DMS-273) was > 100 µM (inactive). For the same molecule, the GI50 (ACHN) was > 100 µM (inactive), the GI50 (SF-268) was > 100 µM (inactive) and the GI50 (SK-MEL-5) was > 100 µM (inactive). The GI50 (DLD-1) was > 100 µM (inactive), the GI50 (HCC 2998) was > 100 µM (inactive) and the GI50 (HOP-62) was > 100 µM (inactive). The GI50 (SNB-19) was > 100 µM (inactive), the GI50 (A549) was > 100 µM (inactive) and the GI50 (SF-295) was > 100 µM (inactive).
In the case of `COc1cc(/C=C2\[C@H]3c4c(c(OC)c(C)c(OC)c4OC)CC(C(=O)N2Cc2ccccc2)N3C)c(OC)c(C)c1OC`, the GI50 (SW-620) is reported as 22.2 µM (inactive), the GI50 (HT-29) is reported as 19.1 µM (inactive) and the GI50 (K562) is reported as 27.6 µM (inactive). For the same molecule, the GI50 (TK-10) was 33.5 µM (inactive), the GI50 (RPMI-8226) was 20.6 µM (inactive) and the GI50 (DMS-273) was 15.5 µM (inactive). For the same molecule, the GI50 (ACHN) was 26.1 µM (inactive), the GI50 (SF-268) was 27.2 µM (inactive) and the GI50 (SK-MEL-5) was 19 µM (inactive). For the same molecule, the GI50 (DLD-1) was 47.5 µM (inactive), the GI50 (HCC 2998) was 21.7 µM (inactive) and the GI50 (HOP-62) was 19.5 µM (inactive). The GI50 (IGROV-1) was 21.8 µM (inactive), the GI50 (SNB-19) was 27.2 µM (inactive) and the GI50 (A549) was > 100 µM (inactive). For the same molecule, the GI50 (SF-295) was 19.8 µM (inactive).
For `CN1N=C2c3ccccc3CC[C@H]2C1c1cccc(O)c1` (stereo not given in full), the GI50 (SW-620) was > 100 µM (inactive), the GI50 (HT-29) was 55.1 µM (inactive) and the GI50 (K562) was 74.1 µM (inactive). The GI50 (TK-10) was > 100 µM (inactive), the GI50 (HCT-15) was > 100 µM and the GI50 (RPMI-8226) was > 100 µM (inactive). For the same molecule, the GI50 (DMS-273) was > 100 µM (inactive), the GI50 (ACHN) was > 100 µM (inactive) and the GI50 (SF-268) was > 100 µM (inactive). For the same molecule, the GI50 (DLD-1) was > 100 µM (inactive), the GI50 (HCC 2998) was > 100 µM (inactive) and the GI50 (HOP-62) was > 100 µM (inactive). The GI50 (IGROV-1) was > 100 µM (inactive), the GI50 (SNB-19) was > 100 µM (inactive) and the GI50 (A549) was 85.5 µM (inactive). The GI50 (SF-295) was > 100 µM (inactive).
In the case of `COc1cc2nc(Sc3c([N+](=O)[O-])ncn3C)[nH]c2cc1OC`, the GI50 (SW-620) is reported as 26 µM (inactive), the GI50 (HT-29) is reported as 41.7 µM (inactive) and the GI50 (TK-10) is reported as 26.9 µM (inactive). For the same molecule, the GI50 (HCT-15) was 19.4 µM, the GI50 (RPMI-8226) was 22.3 µM (inactive) and the GI50 (DMS-273) was 1.65 µM (inactive). For the same molecule, the GI50 (ACHN) was 54.3 µM (inactive), the GI50 (SF-268) was 19.2 µM (inactive) and the GI50 (SK-MEL-5) was 18.9 µM (inactive). The GI50 (DLD-1) was 14 µM (inactive), the GI50 (HCC 2998) was 17.9 µM (inactive) and the GI50 (HOP-62) was > 100 µM (inactive). The GI50 (IGROV-1) was 14.2 µM (inactive), the GI50 (SNB-19) was 26.1 µM (inactive) and the GI50 (A549) was 34.8 µM (inactive). The GI50 (SF-295) was > 100 µM (inactive).
`CCCCCCCC[N+](C)(C)Cc1ccc(C[N+](C)(C)CCCCCCCC)cc1` was tested, and the GI50 (SW-620) was 91.2 µM (inactive), the GI50 (HT-29) was 6.03 µM (inactive) and the GI50 (K562) was 28.4 µM (inactive). For the same molecule, the GI50 (TK-10) was 86.9 µM (inactive), the GI50 (HCT-15) was > 100 µM and the GI50 (RPMI-8226) was 90.2 µM (inactive). The GI50 (DMS-273) was 3.84 µM (inactive), the GI50 (ACHN) was > 100 µM (inactive) and the GI50 (SF-268) was > 100 µM (inactive). For the same molecule, the GI50 (SK-MEL-5) was 36.7 µM (inactive), the GI50 (DLD-1) was 35.4 µM (inactive) and the GI50 (HCC 2998) was 31.5 µM (inactive). For the same molecule, the GI50 (HOP-62) was 4.11 µM (inactive), the GI50 (IGROV-1) was 13.4 µM (inactive) and the GI50 (SNB-19) was 24.6 µM (inactive). For the same molecule, the GI50 (A549) was 32.8 µM (inactive) and the GI50 (SF-295) was 63.4 µM (inactive).
